Measurements reported in US20020128301A1, “Non-nucleoside reverse transcriptase inhibitors” (priority 1998, published 2002).

Assay: Bioavailability: release of the mother compound of Formula P-2 from orally administered prodrugs in rats, plasma assayed by HPLC
Conditions: oral, propylene glycol vehicle, fasted male Sprague Dawley rats, dose corresponding to […]; released drug (1S,2S)-N-[cis-2-(6-fluoro-2-hydroxy-3-propionylphenyl)cyclopropyl]-N'-[2-(5-cyanopyridyl)]urea measured in plasma
Protocol: At 30, 60, 120, 240 & 360 minutes, 0.2 ml blood were collected, centrifuged and frozen for later analysis. […] Aliquots comprising 40-100 μl of each plasma sample are mixed with an equal volume of acetonitrile (10 seconds, Vibrofex). The sample is centrifuged (2 min, 14000 RPM) and 30 μl the supernatant is injected into an HPLC system, as follows.

| SMILES | Bioavailability 0-6 hours [%] |
| --- | --- |
| CCC(=O)c1ccc(F)c([C@@H]2C[C@@H]2NC(=O)Nc2ccc(C#N)cn2)c1OCOC(=O)OC(COC(=O)[C@@H](N)C(C)C)COC(=O)[C@@H](N)C(C)C (relative stereo) [Example 6] | 50 |
| CCC(=O)c1ccc(F)c([C@@H]2C[C@@H]2NC(=O)Nc2ccc(C#N)cn2)c1OCOC(=O)[C@@H](N)[C@@H](C)CC (relative stereo) [Example 1, (1S, 2S)-N-{cis-2-[6-fluoro-2-(L-isoleucyloxymethyloxy)-3-propionylphenyl]cyclopropyl}-N′-[2-(5-cyanopyridyl)]urea] | 34 |
| CCC(=O)c1ccc(F)c([C@@H]2C[C@@H]2NC(=O)Nc2ccc(C#N)cn2)c1OC(=O)OCOC(=O)[C@@H](N)C(C)C (relative stereo) [Example 7, (1S,2S)-N-[cis-2-(6-fluoro-2-(L-valyloxy)methoxycarbonyloxy-3-propionylphenyl)cyclopropyl]-N′-[2-(5-cyanopyridyl)]urea] | 70 |
